Values of other authors as cited in patent US7601757B2, “Lipid system and methods of use” (Abbott Laboratories, priority 2003, dated 2009).

Columns and labels:
[1] = tested on: genetically insulin-resistant diabetic mice (KK-Ay); details: 21 days after daily administration by gavage
[2] = tested on: obese individuals with markers of insulin resistance; details: diets rich in alpha-linolenic acid as margarine and muffins made with flaxseed oil

For `CC/C=C\C/C=C\C/C=C\CCCCCCCC(=O)O` [alpha-linolenic acid], the “Blood glucose response to insulin” value [1] is listed as “significant improvement” and the Insulin sensitivity [2] is listed as “decreased”.
